US9028890B2, “Composition for improving sexual wellness” (Horphag Research (IP) Pre Ltd., priority 2010, dated 2015)

Experiments:
[1] = test system: Adult women of all ages with a score lower than four points for all five domains; experiment: Women responding by FSFI: score equal to or higher than four points for all five domains after four weeks (Examples 3, 5, 6); format: in vivo, human; conditions: daily supply, four weeks treatment
Source text: Women's sexual function is scored using the established “Female Sexual Function Index” (FSFI) questionnaire [Rosen et al., 2000]. The questionnaire allows to score prevalence of six subcategories (domains) related to female sexual function, with minimum and maximum scores given:
Adult women of all ages were investigated who presented with a score lower than four points out of maximum six points for all five domains.
The investigation depicts the number of responders to the intervention as detailed in the tables after four weeks treatment with a score equal to or higher than four points for all five domains.

postmenopausal women [2] = conditions: taken together with supplemental hormones, cited from earlier work
postmenopausal women [3] = conditions: cited from earlier work

SMILES | Responders (women responding with improvement / n) [1] | women who reported improved genital sensations (postmenopausal women [2]; 202 postmenopausal women, placebo group 43 percent) | group members who reported greater satisfaction with sex (postmenopausal women [2]; placebo group 27 percent) | treatment of SD (postmenopausal women [3])
N=C(N)NCCC[C@H](N)C(=O)O [2.8 g L-arginine, L-arginine] | 5/26 |  |  | 
CCCc1nn(C)c2c(=O)[nH]c(-c3cc(S(=O)(=O)N4CCN(C)CC4)ccc3OCC)nc12 [sildenafil] |  | 57% | Forty-one | not effective
